{"source": "paper PMC11822212", "about": "“High-throughput screening identifies Aurora kinase B as a critical therapeutic target for Merkel cell carcinoma” (Nature Communications, 2025)", "key": {"WAGA cells (VP-MCC)": {"tested_on": "WAGA cells (VP-MCC)", "test": "qHTS cell viability (CellTiter-Glo, 72 h; primary and follow-up small molecule screen)", "format": "cell-based, human"}, "CRL-7250 cells": {"tested_on": "CRL-7250 cells", "test": "qHTS cell viability (CellTiter-Glo, 72 h; primary screen), control cell line", "format": "cell-based"}, "[1]": {"tested_on": "six MCC cell lines and four control cell lines", "test": "qHTS cell viability, all 10 cell lines screened", "format": "cell-based"}, "HACAT cells": {"tested_on": "HACAT cells", "test": "qHTS cell viability (CellTiter-Glo, 72 h; primary screen), control cell line", "format": "cell-based, human"}, "MCC13 cells (VN-MCC)": {"tested_on": "MCC13 cells (VN-MCC)", "test": "qHTS cell viability (CellTiter-Glo, 72 h; primary and follow-up small molecule screen)", "format": "cell-based, human"}, "[2]": {"tested_on": "MCC cell lines (WAGA, MKL-1, MKL-2, MCC13, MCC26, UISO)", "test": "qHTS cell viability, all six MCC cell lines as a group (mean AUC, MCC.avg)", "format": "cell-based, human"}, "[3]": {"tested_on": "control cell lines (HACAT, HEK293T, CRL-7250, NIH-3T3)", "test": "qHTS cell viability, control cell lines as a group (mean AUC, Control.avg)", "format": "cell-based"}, "UISO cells (VN-MCC)": {"tested_on": "UISO cells (VN-MCC)", "test": "qHTS cell viability (CellTiter-Glo, 72 h; primary and follow-up small molecule screen)", "format": "cell-based, human"}, "MKL-2 cells (VP-MCC)": {"tested_on": "MKL-2 cells (VP-MCC)", "test": "qHTS cell viability (CellTiter-Glo, 72 h; primary and follow-up small molecule screen)", "format": "cell-based, human"}, "HEK293T cells": {"tested_on": "HEK293T cells", "test": "qHTS cell viability (CellTiter-Glo, 72 h; primary screen), control cell line", "format": "cell-based, human"}, "MCC26 cells (VN-MCC)": {"tested_on": "MCC26 cells (VN-MCC)", "test": "qHTS cell viability (CellTiter-Glo, 72 h; primary and follow-up small molecule screen)", "format": "cell-based, human"}, "NIH-3T3 cells": {"tested_on": "NIH-3T3 cells", "test": "qHTS cell viability (CellTiter-Glo, 72 h; primary screen), control cell line", "format": "cell-based, mouse"}, "MKL-1 cells (VP-MCC)": {"tested_on": "MKL-1 cells (VP-MCC)", "test": "qHTS cell viability (CellTiter-Glo, 72 h; primary and follow-up small molecule screen)", "format": "cell-based, human"}, "[4]": {"tested_on": "VP-MCC cell lines (WAGA, MKL-1, MKL-2)", "test": "qHTS cell viability, VP-MCC cell lines as a group (mean AUC, VP.MCC.avg)", "format": "cell-based, human"}, "[5]": {"tested_on": "VN-MCC cell lines (MCC13, MCC26, UISO)", "test": "qHTS cell viability, VN-MCC cell lines as a group (mean AUC, VN.MCC.avg)", "format": "cell-based, human"}}, "note": "Values joined by “and” are separate entries in the source; they are usually repeats but may differ in a detail not shown here. Identical values can stand only once. Counter-ions that a name gives are not always drawn. Like-named read-outs stand apart in the source and are kept apart here.", "data": [{"compound": "CCCCCCC[N+](CC)(CC)CCCCc1ccc(Cl)cc1.Cc1ccc(S(=O)(=O)[O-])cc1", "note": "[Clofilium tosylate]", "values": [{"measurement": "WAGA_AUC", "setting": "WAGA cells (VP-MCC); NPC library, qHTS dose-response AUC, WAGA", "value": 331.884}, {"measurement": "Area under the dose-response curve (AUC) WAGA Replicate 1", "setting": "WAGA cells (VP-MCC); follow-up screen, WAGA, replicate 1", "value": 348.8}, {"measurement": "Area under the dose-response curve (AUC) WAGA Replicate 2", "setting": "WAGA cells (VP-MCC); follow-up screen, WAGA, replicate 2", "value": 411.4}, {"measurement": "Area under the dose-response curve (AUC) WAGA Replicate 3", "setting": "WAGA cells (VP-MCC); follow-up screen, WAGA, replicate 3", "value": 326.5}, {"measurement": "CRL7250_AUC", "setting": "CRL-7250 cells; NPC library, qHTS dose-response AUC, CRL7250 control", "value": 402.177}, {"measurement": "Control-MCC", "setting": "[1]; NPC library, therapeutic window: Control avg AUC minus MCC avg AUC", "value": 42.4257}, {"measurement": "HACAT_AUC", "setting": "HACAT cells; NPC library, qHTS dose-response AUC, HACAT control", "value": 444.696}, {"measurement": "MCC13_AUC", "setting": "MCC13 cells (VN-MCC); NPC library, qHTS dose-response AUC, MCC13", "value": 487.681}, {"measurement": "Area under the dose-response curve (AUC) MCC13 Replicate 1", "setting": "MCC13 cells (VN-MCC); follow-up screen, MCC13, replicate 1", "value": 426.2}, {"measurement": "Area under the dose-response curve (AUC) MCC13 Replicate 2", "setting": "MCC13 cells (VN-MCC); follow-up screen, MCC13, replicate 2", "value": 460.3}, {"measurement": "Area under the dose-response curve (AUC) MCC13 Replicate 3", "setting": "MCC13 cells (VN-MCC); follow-up screen, MCC13, replicate 3", "value": 452.0}, {"measurement": "MCC_Avg_AUC", "setting": "[2]; NPC library, mean AUC of six MCC cell lines", "value": 376.221}, {"measurement": "Control_Avg_AUC", "setting": "[3]; NPC library, mean AUC of control cell lines", "value": 418.646}, {"measurement": "UISO_AUC", "setting": "UISO cells (VN-MCC); NPC library, qHTS dose-response AUC, UISO", "value": 375.709}, {"measurement": "Area under the dose-response curve (AUC) UISO Replicate 1", "setting": "UISO cells (VN-MCC); follow-up screen, UISO, replicate 1", "value": 319.6}, {"measurement": "Area under the dose-response curve (AUC) UISO Replicate 2", "setting": "UISO cells (VN-MCC); follow-up screen, UISO, replicate 2", "value": 366.0}, {"measurement": "Area under the dose-response curve (AUC) UISO Replicate 3", "setting": "UISO cells (VN-MCC); follow-up screen, UISO, replicate 3", "value": 321.7}, {"measurement": "MKL2_AUC", "setting": "MKL-2 cells (VP-MCC); NPC library, qHTS dose-response AUC, MKL2", "value": 283.262}, {"measurement": "Area under the dose-response curve (AUC) MKL-2 Replicate 1", "setting": "MKL-2 cells (VP-MCC); follow-up screen, MKL-2, replicate 1", "value": 313.7}, {"measurement": "Area under the dose-response curve (AUC) MKL-2 Replicate 2", "setting": "MKL-2 cells (VP-MCC); follow-up screen, MKL-2, replicate 2", "value": 309.2}, {"measurement": "Area under the dose-response curve (AUC) MKL-2 Replicate 3", "setting": "MKL-2 cells (VP-MCC); follow-up screen, MKL-2, replicate 3", "value": 301.8}, {"measurement": "HEK293T_AUC", "setting": "HEK293T cells; NPC library, qHTS dose-response AUC, HEK293T control", "value": 375.013}, {"measurement": "MCC26_AUC", "setting": "MCC26 cells (VN-MCC); NPC library, qHTS dose-response AUC, MCC26", "value": 466.849}, {"measurement": "Area under the dose-response curve (AUC) MCC26 Replicate 1", "setting": "MCC26 cells (VN-MCC); follow-up screen, MCC26, replicate 1", "value": 410.9}, {"measurement": "Area under the dose-response curve (AUC) MCC26 Replicate 2", "setting": "MCC26 cells (VN-MCC); follow-up screen, MCC26, replicate 2", "value": 395.3}, {"measurement": "Area under the dose-response curve (AUC) MCC26 Replicate 3", "setting": "MCC26 cells (VN-MCC); follow-up screen, MCC26, replicate 3", "value": 393.8}, {"measurement": "NIH3T3_AUC", "setting": "NIH-3T3 cells; NPC library, qHTS dose-response AUC, NIH3T3 control", "value": 452.7}, {"measurement": "MKL1_AUC", "setting": "MKL-1 cells (VP-MCC); NPC library, qHTS dose-response AUC, MKL1", "value": 311.939}, {"measurement": "Area under the dose-response curve (AUC) MKL-1 Replicate 1", "setting": "MKL-1 cells (VP-MCC); follow-up screen, MKL-1, replicate 1", "value": 329.2}, {"measurement": "Area under the dose-response curve (AUC) MKL-1 Replicate 2", "setting": "MKL-1 cells (VP-MCC); follow-up screen, MKL-1, replicate 2", "value": 327.6}, {"measurement": "Area under the dose-response curve (AUC) MKL-1 Replicate 3", "setting": "MKL-1 cells (VP-MCC); follow-up screen, MKL-1, replicate 3", "value": 322.0}, {"measurement": "VP-MCC_Avg_AUC", "setting": "[4]; NPC library, mean AUC of VP-MCC cell lines", "value": 309.028}, {"measurement": "Control-VP-MCC", "setting": "[4]; NPC library, therapeutic window: Control avg AUC minus VP-MCC avg AUC", "value": 109.618}, {"measurement": "VN-MCC_Avg_AUC", "setting": "[5]; NPC library, mean AUC of VN-MCC cell lines", "value": 443.413}, {"measurement": "Control-VN-MCC", "setting": "[5]; NPC library, therapeutic window: Control avg AUC minus VN-MCC avg AUC", "value": -24.7666}]}, {"compound": "COc1ccc2c3c1O[C@H]1[C@@H](O)C=C[C@H]4[C@@H](C2)N(C)CC[C@@]341", "note": "[Codeine hydrochloride]", "values": [{"measurement": "WAGA_AUC", "setting": "WAGA cells (VP-MCC)", "value": 360.01}, {"measurement": "CRL7250_AUC", "setting": "CRL-7250 cells", "value": 458.141}, {"measurement": "Control-MCC", "setting": "[1]", "value": 90.9174}, {"measurement": "HACAT_AUC", "setting": "HACAT cells", "value": 474.439}, {"measurement": "MCC13_AUC", "setting": "MCC13 cells (VN-MCC)", "value": 404.155}, {"measurement": "MCC_Avg_AUC", "setting": "[2]", "value": 368.884}, {"measurement": "Control_Avg_AUC", "setting": "[3]", "value": 459.802}, {"measurement": "UISO_AUC", "setting": "UISO cells (VN-MCC)", "value": 365.394}, {"measurement": "MKL2_AUC", "setting": "MKL-2 cells (VP-MCC)", "value": 316.851}, {"measurement": "HEK293T_AUC", "setting": "HEK293T cells", "value": 441.34}, {"measurement": "MCC26_AUC", "setting": "MCC26 cells (VN-MCC)", "value": 404.512}, {"measurement": "NIH3T3_AUC", "setting": "NIH-3T3 cells", "value": "465.288 and 465.287"}, {"measurement": "MKL1_AUC", "setting": "MKL-1 cells (VP-MCC)", "value": 362.385}, {"measurement": "Control-VP-MCC", "setting": "[4]", "value": 113.387}, {"measurement": "VP-MCC_Avg_AUC", "setting": "[4]", "value": 346.415}, {"measurement": "Control-VN-MCC", "setting": "[5]", "value": 68.4482}, {"measurement": "VN-MCC_Avg_AUC", "setting": "[5]", "value": 391.354}]}]}
